Experimental data from patent US20250268871A1, “NEW CRYSTAL FORM OF NITROGEN-CONTAINING TRICYCLIC COMPOUND AND USE THEREOF” (SUNSHINE LAKE PHARMA CO., LTD., priority 2021, published 2025).

Experiments:
[1] = Pharmacokinetic experiment, oral capsules in Beagle dogs; format: in vivo; settings: dog, plasma, male Beagle dogs, 5 mg/kg
Experimental: The crystal form of the compound having Formula (I) was filled into capsules, which were used for oral administration.
Three male Beagle dogs weighing 8-12 kg were orally administered with capsules containing the test sample at a dose of 5 mg/kg, and blood samples were taken at time points of 0.25 h, 0.5 h, 1.0 h, 2.0 h, 4.0 h, 6.0 h, 8.0 h and 24 h. Standard curve was plotted based on concentrations of the samples in a suitable range, the concentration of the test sample in the plasma sample was measured and quantified by AB SCIEX API4000 LC-MS/MS at MRM mode. Pharmacokinetic parameters were calculated according to drug concentration-time curve using a noncompartmental method by WinNonLin 6.3 software.

[2] = Stability experiment (high-temperature, high-humidity, photostability); format: physicochemical
Experimental: (§1) (1) High-temperature test: A batch of the test sample was taken and put into a flat weighing bottle, divided into ≤5 mm thick thin layer. The sample was placed at 60° C. for 30 days. The sample was then sampled at day 5, day 13 and day 30, and the change of the sample's color was observed. The purity of the sample was detected by HPLC.
(2) High-humidity test: A batch of the test sample was taken and put into a flat weighing bottle, divided into ≤5 mm thick thin layer. The sample was placed at 25° C. and RH for 90%±5% for 30 days. The sample wad sampled at day 5, day 13 and day 30, and the change of the sample's color was observed. The purity of the sample was detected by HPLC.
as §1, with “(3) Photostability” for “(1) High-temperature”, “taken” for “taken and put”, “placed in an opened light box (with UV)” for “placed”, “the illuminance 4500+5001x, UV light ≥0.7w/m2” for “60° C.”

[3] = Hygroscopicity experiment (dynamic vapor sorption); format: physicochemical; settings: relative humidity of 80%, criterion of hygroscopic weight gain
Experimental: The description of the hygroscopic characteristics and the definition of the hygroscopic weight gain (Appendix 9103 of Chinese Pharmacopoeia 2020 Edition, Guidelines for Drug Hygroscopicity Tests, experimental conditions: 25° C.±1° C., 80%+2% relative humidity) are described in the table below:
The hygroscopicity of the present invention is measured using the DVS INT-Std dynamic moisture and gas adsorption analyzer of the Surface Measurement Systems Company in UK. The humidity test range was 0%-95%, the air flow was 200 mL/min, the temperature was 25° C., test point: take one test point per […] 5% humidity.
An appropriate amount of the test sample was taken and the hygroscopicity of the test sample was tested by dynamic moisture adsorption device. It can be seen from FIG. 4 that the weight gain of the crystal form J according to the present invention is more than 0.2% but less than 2% after equilibrium under the condition of a relative humidity of 80%. […] Therefore, the crystal form J of the invention is not susceptible to deliquescent under the influence of high humidity, which is convenient for the long-term storage of the medicine.

AUC(0-t) [1]: 885 ng·h/mL
Cmax [1]: 554 ng/mL
Tmax [1]: 40 min
crystal structure stability ([2]; high temperature, high humidity and/or lighting conditions): remains basically unchanged
hygroscopic characteristics [3]: lightly hygroscopic
Compound: O=C(O)c1ccc2c(c1)Oc1ccc(OCc3c(-c4c(Cl)cccc4Cl)noc3C3CC3)nc1C1(CC1)C2 [crystal form J, 2-((5-cyclopropyl-3-(2,6-dichlorophenyl)isoxazol-4-yl)methoxy)-10H-spiro[benzo[6,7]oxepino[3,2-b]pyridine-11,1′-cyclopropane]-7-carboxylic acid]
change in appearance and chemical purity (HPLC) ([2]; 60° C., 25° C. and RH 90%±5%, light box with UV, 30 days, sampled at day 5, 13, 30): no obvious changes in the appearance and chemical purity
